Assay results from patent publication US11613546B2, “Substituted pyridotriazine compounds and uses thereof” (Gilead Sciences, Inc., priority 2021, dated 2023).
Where two headings read alike, the source gives them in different places.

Experiments:
Assay type in all cases: cell-based
HIV-1 (IIIB) = assay: Antiviral assay in MT-4 cells; details: HIV-1 IIIB infected MT-4 cells, 5 days, Cell Titer Glo, read-out: MT4 EC50
In short: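 MT-4 cells infected with a 1:250 dilution of HIV-1 IIIB stock were incubated with serially diluted (1:3) compound for 5 days at 37 °C. Viability read by Cell Titer Glo luminescence; EC50 is the concentration giving 50% decrease in signal, from sigmoidal dose-response fits.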

pLai RLuc reporter virus = assay: HIV MT-4 serum shift antiviral reporter assay
In short: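 MT-4 cells pre-infected with pLai RLuc virus for 2 h at 37 °C, then incubated 72 h at 37 °C with compound in medium (RPMI, 10% FBS) with or without 50% human serum; Renilla luminescence read. EC50 from sigmoidal fit; serum shift = EC50(HS/CCM)/EC50(CCM).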

MT-4 cells = assay: Cytotoxicity assay in MT-4 cells
In short: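 Uninfected MT-4 cells were incubated with 1:3 serially diluted compound in RPMI/10% FBS for 5 days at 37° C. Viability was read by CellTiter-Glo luminescence, with 10 μM puromycin as the baseline cytotoxicity control. Values are the concentration giving a 50% decrease in luminescence, from sigmoidal dose-response fits.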

[1] = Human immunodeficiency virus 1, IIIB, MT4, 120 h
[2] = Human immunodeficiency virus 1, 72 h, read-out: RLUC 50% HS (nM), HS/CCM: 50% human serum, 72 h, Renilla Glo
[3] = Human immunodeficiency virus 1, 72 h, read-out: RLUC CCM (nM), cell culture media (RPMI, 10% FBS), 72 h, Renilla Glo
[4] = uninfected MT-4 cells, 5 days, Cell Titer Glo, read-out: CC50
[5] = read-out: RLUC 50% HS, HS/CCM: 50% human serum, 72 h, Renilla Glo
[6] = read-out: RLUC CCM, cell culture media (RPMI, 10% FBS), 72 h, Renilla Glo
[7] = HS/CCM: 50% human serum, 72 h, Renilla Glo, read-out: RLUC 50% HS
[8] = cell culture media (RPMI, 10% FBS), 72 h, Renilla Glo, read-out: RLUC CCM

Structure (SMILES)	EC50 (HIV-1 (IIIB); [1]) [nM]	EC50 (pLai RLuc reporter virus; [2]) [nM]	EC50 (pLai RLuc reporter virus; [3]) [nM]	CC50 (MT-4 cells; [4]) [nM]	EC50 (HIV-1 (IIIB)) [nM]	EC50 (pLai RLuc reporter virus; [5]) [nM]	EC50 (pLai RLuc reporter virus; [6]) [nM]	EC50 (pLai RLuc reporter virus; [7]) [nM]	EC50 (pLai RLuc reporter virus; [8]) [nM]	CC50 (MT-4 cells) [nM]
C[C@H]1CCC[C@H](C)N2CN1C(=O)c1c(O)c(=O)c(C(=O)NCc3c(F)cc(F)cc3F)cn12 [Example C23, (1S,2S,6S)-9-hydroxy-2,6-dimethyl-8,10-dioxo-N-(2,4,6-trifluorobenzyl)-3,4,5,6,8,10-hexahydro-2H-1,7-methanopyrido[1,2-b][1,2,5]triazecine-11-carboxamide]	2.5	14.5	0.29	50000						
C[C@H]1C=C[C@H](C)N2CN1C(=O)c1c(O)c(=O)c(C(=O)NCc3c(F)cc(F)cc3F)cn12 [Example C26, (1R,2S,5S)-8-hydroxy-2,5-dimethyl-7,9-dioxo-N-(2,4,6-trifluorobenzyl)-2,5,7,9-tetrahydro-1,6-methanopyrido[1,2-b][1,2,5]triazonine-10-carboxamide]				28100	2.4	349	0.63			
C[C@H]1CC[C@H](C)N2CN1C(=O)c1c(O)c(=O)c(C(=O)NCc3c(F)cc(F)cc3F)cn12 [Example C28, (1S,2S,5S)-8-hydroxy-2,5-dimethyl-7,9-dioxo-N-(2,4,6-trifluorobenzyl)-2,3,4,5,7,9-hexahydro-1,6-methanopyrido[1,2-b][1,2,5]triazonine-10-carboxamide]				6870	1.4	319	0.33			
C[C@@H]1CC(F)(F)[C@H](C)N2CN1n1cc(C(=O)NCc3c(F)cc(F)cc3F)c(=O)c(O)c1C2=O [Example C35, (1S,2R,5S)-4,4-difluoro-8-hydroxy-2,5-dimethyl-7,9-dioxo-N-(2,4,6-trifluorobenzyl)-2,3,4,5,7,9-hexahydro-1,6-methanopyrido[1,2-b][1,2,5]triazonine-10-carboxamide]				29900	1.6			188	1.3	
C[C@H]1CCCCN2CN1n1cc(C(=O)NCc3ccc(F)cc3F)c(=O)c(O)c1C2=O [Example C40, (1S,2S)—N-(2,4-difluorobenzyl)-9-hydroxy-2-methyl-8,10-dioxo-3,4,5,6,8,10-hexahydro-2H-1,7-methanopyrido[1,2-b][1,2,5]triazecine-11-carboxamide]				16000	2.1			139	1.3	
C[C@H]1C/C=C\CN2CN1n1cc(C(=O)NCc3ccc(F)cc3F)c(=O)c(O)c1C2=O [Example C41, (1S,2S,Z)—N-(2,4-difluorobenzyl)-9-hydroxy-2-methyl-8,10-dioxo-3,6,8,10-tetrahydro-2H-1,7-methanopyrido[1,2-b][1,2,5]triazecine-11-carboxamide]				14200	1.2	68.6	0.71			
C[C@H]1C/C=C\CN2CN1n1cc(C(=O)NCc3ccc(F)cc3F)c(=O)c(O)c1C2=O [Example C43, (1R,2S,Z)—N-(2,4-difluorobenzyl)-9-hydroxy-2-methyl-8,10-dioxo-3,6,8,10-tetrahydro-2H-1,7-methanopyrido[1,2-b][1,2,5]triazecine-11-carboxamide]				6110	5.3	544	1.68			
CO[C@@H]1C=C[C@H](C)N2CN1n1cc(C(=O)NCc3c(F)cc(F)cc3F)c(=O)c(O)c1C2=O [Example C46, (1R,2R,5S)-8-hydroxy-2-methoxy-5-methyl-7,9-dioxo-N-(2,4,6-trifluorobenzyl)-2,5,7,9-tetrahydro-1,6-methanopyrido[1,2-b][1,2,5]triazonine-10-carboxamide]				27000	1.6			468	0.44	
C[C@@H]1C=C[C@H](CF)N2CN1n1cc(C(=O)NCc3ccc(F)cc3F)c(=O)c(O)c1C2=O [Example C49a, (1S,10R,13R)—N-[(2,4-difluorophenyl)methyl]-10-(fluoromethyl)-6-hydroxy-13-methyl-5,8-dioxo-1,2,9-triazatricyclo[7.4.1.02,7]tetradeca-3,6,11-triene-4-carboxamide]				11300	1.2			140	0.64	
C[C@@H]1CC[C@H](CF)N2CN1n1cc(C(=O)NCc3ccc(F)cc3F)c(=O)c(O)c1C2=O [Example C49b, (1S,10R,13R)—N-[(2,4-difluorophenyl)methyl]-10-(fluoromethyl)-6-hydroxy-13-methyl-5,8-dioxo-1,2,9-triazatricyclo[7.4.1.02,7]tetradeca-3,6-diene-4-carboxamide]				8930	1.9			462	1	
C[C@@H]1CC[C@H](CF)N2CN1n1cc(C(=O)NCc3c(F)cc(F)cc3F)c(=O)c(O)c1C2=O [Example C51, (1S,2R,5R)-5-(fluoromethyl)-8-hydroxy-2-methyl-7,9-dioxo-N-(2,4,6-trifluorobenzyl)-2,3,4,5,7,9-hexahydro-1,6-methanopyrido[1,2-b][1,2,5]triazonine-10-carboxamide]					1.3			408	2.3	9810
C[C@@H]1c2nc[nH]c2[C@H](C)N2CN1n1cc(C(=O)NCc3ccc(F)cc3F)c(=O)c(O)c1C2=O [Example C60, (4R,5S,13S)—N-(2,4-difluorobenzyl)-10-hydroxy-4,13-dimethyl-9,11-dioxo-4,9,11,13-tetrahydro-1H-5,12-methanoimidazo[4,5-g]pyrido[1,2-b][1,2,5]triazonine-8-carboxamide]	95.7	104	42.6	50000						
CO[C@@H]1[C@H](OC)[C@H](C)N2CN([C@@H]1C)n1cc(C(=O)NCc3c(F)cc(F)cc3F)c(=O)c(O)c1C2=O [Example C61, (1S,2R,3S,4R,5S)-8-hydroxy-3,4-dimethoxy-2,5-dimethyl-7,9-dioxo-N-(2,4,6-trifluorobenzyl)-2,3,4,5,7,9-hexahydro-1,6-methanopyrido[1,2-b][1,2,5]triazonine-10-carboxamide]	2.8	1.6	0.76	50000						
C[C@H]1CC[C@H](C)N2CN1C(=O)c1c(O)c(=O)c(C(=O)NCc3c(F)cc(F)cc3F)cn12 [Example C66, (1R,2S,5S)-8-hydroxy-2,5-dimethyl-7,9-dioxo-N-(2,4,6-trifluorobenzyl)-2,3,4,5,7,9-hexahydro-1,6-methanopyrido[1,2-b][1,2,5]triazonine-10-carboxamide]				10400	1.4	179	0.5			
C[C@@H]1C=C[C@@H](C)N2CN1C(=O)c1c(O)c(=O)c(C(=O)NCc3ccc(F)cc3F)cn12 [Example C68, (1R,2R,5R)—N-(2,4-difluorobenzyl)-8-hydroxy-2,5-dimethyl-7,9-dioxo-2,5,7,9-tetrahydro-1,6-methanopyrido[1,2-b][1,2,5]triazonine-10-carboxamide]	1.6		0.82	17300		291				
C[C@@H]1C=C[C@@H](C)N2CN1C(=O)c1c(O)c(=O)c(C(=O)NCc3ccc(F)cc3F)cn12 [Example C69, (1S,2R,5R)—N-(2,4-difluorobenzyl)-8-hydroxy-2,5-dimethyl-7,9-dioxo-2,5,7,9-tetrahydro-1,6-methanopyrido[1,2-b][1,2,5]triazonine-10-carboxamide]				38900	1.5	146	0.55			
C[C@H]1CC[C@@H](C(F)F)N2CN1C(=O)c1c(O)c(=O)c(C(=O)NCc3c(F)cc(F)cc3F)cn12 [Example C78, (1S,2S,5S)-2-(difluoromethyl)-8-hydroxy-5-methyl-7,9-dioxo-N-(2,4,6-trifluorobenzyl)-2,3,4,5,7,9-hexahydro-1,6-methanopyrido[1,2-b][1,2,5]triazonine-10-carboxamide]				13700	1.6			1040	0.42	
COC[C@@H]1C=C[C@H](C)N2CN1n1cc(C(=O)NCc3c(F)cc(F)cc3F)c(=O)c(O)c1C2=O [Example C79, (1S,2S,5S)-8-hydroxy-2-(methoxymethyl)-5-methyl-7,9-dioxo-N-(2,4,6-trifluorobenzyl)-2,5,7,9-tetrahydro-1,6-methanopyrido[1,2-b][1,2,5]triazonine-10-carboxamide]	4.6	638	1.81	50000						
C[C@H]1C=C[C@H](CF)N2CN1C(=O)c1c(O)c(=O)c(C(=O)NCc3c(F)cc(F)cc3F)cn12 [Example C80, (1R,2R,5S)-2-(fluoromethyl)-8-hydroxy-5-methyl-7,9-dioxo-N-(2,4,6-trifluorobenzyl)-2,5,7,9-tetrahydro-1,6-methanopyrido[1,2-b][1,2,5]triazonine-10-carboxamide]					8.1			810	1.24	25400
